# Results from publication PMC7789354 (BMC Gastroenterology, 2021).
# Assays:
# [1] = tested on: proximal jejunum; assay: In situ jejunal perfusion, OCT absorption into portal vein blood; assay type: in vivo, rat; conditions: for AUC, % of the correspondent control group (Group A1): PH rats; for AUC, % of the correspondent control group (Group A1) / AUC, % of the correspondent control (Group A; OCT only): portal vein blood 5-60 min; for AUC, % of the correspondent control (Group A; OCT only): healthy rats
# Procedure: The experimental procedure was performed as previously reported. Briefly, the mean length of the proximal jejunum (approximately 2 cm distal to the ligament of Treitz) was 10 ± 1 cm. An oxygenated Krebs–Ringer bicarbonate buffer (KRB) solution (pH 7.4) containing 0.5 mM MgCl2, 4.5 mM KCl, 120 mM NaCl, 0.7 mM Na2HPO4, 1.5 mM NaH2PO4, 1.2 mM CaCl2, 15 mM NaHCO3, and 10 mM glucose was perfused at a flow rate of 0.4 mL/min using a peristaltic pump through an inlet tube kept at 37 °C. […] The AUC was calculated using the integral method. These experiments were performed both in healthy and PH rats; the latter was called Group A1, B1, C1, and D1 (n = 4 per group).
# (§1) Frozen samples were thawed at room temperature prior to their preparation. A 200-µL aliquot of cell lysate containing 1 mL Tris, 99 mL D-Hank’s, and 200 µL methyl cyanide was mixed with the sample obtained from Caco-2 experiments. The mixture was then vortexed for 1 min and centrifuged at 12,000×g for 10 min. The supernatant was transferred to a clean glass tube and evaporated to dryness at 40 °C under nitrogen. A 10-μL aliquot was injected for LC − MS/MS analysis. A total of 200 μL methanol was added to a 50-μL sample of plasma, and the mixture was vortexed and centrifuged as described above to remove precipitated proteins. A total of 200 μL supernatant was transferred and evaporated as described for the Caco-2 samples. The residue was then diluted with 100 μL mobile phase and an aliquot of 10 μL was used for LC − MS/MS analysis.
# (§2) Isocratic chromatographic separation was performed using a Hypersil BDS-C18 column (150 mm × 4.6 mm i.d., 5 µm; Dalian Elite Analytical Instruments Co. Ltd., China) maintained at room temperature. A mixture of 40% methanol-60% water with 0.1% formic acid (60:40, v/v) was used as the mobile phase at a flow rate of 0.5 mL/min. An API 3200 triple-quadrupole mass spectrometer (Applied Biosystems, Concord, Ontario, Canada) was operated with a Turbo Ionspray interface in positive ion mode. The ion spray voltage was set to + […], heater gas temperature to 500 °C, nebulizer gas (Gas 1) at 40 psi, heater gas (Gas 2) at 40 psi, curtain gas at 10 psi, and collision gas at 16 psi.
# [2] = tested on: jejunum everted sac; assay: In vitro everted intestinal sac preparation, OCT uptake; assay type: in vitro ADME, rat; conditions: for AUC, % of the correspondent control group (Group A1): PH rats; for AUC, % of the correspondent control group (Group A1) / AUC, % of the correspondent control group (Group A): sac lumen 10-120 min; for AUC, % of the correspondent control group (Group A): healthy rats
# Procedure: Rat jejunum (10 ± 1 cm) was transected approximately 2 cm distal to the ligament of Treitz. […] The AUC was calculated using the trapezoid method. These experiments were performed in both control and PH rats; the latter was called Group A1, B1, C1, and D1 (n = 4 per group).
# as §2
# [3] = Bi-directional Caco-2 permeability (transport) assay; assay type: in vitro ADME, human
# Procedure: (§3) Caco-2 cells (purchased from the Type Culture Collection of the Chinese Academy of Sciences, Shanghai, China) at passage 30 to 33 were used in this study. Cells were routinely cultured as previously described with minor modifications. Cells were seeded onto Transwell inserts in 12-well dishes at a density of 5 × 10^5 cells/well (#3401; 0.4 µm pore size, growth area of 1.13 cm^2, Corning, NY, USA), and the medium was replaced with D-Hanks solution every other day except for the treatment days.
# Cell monolayer integrity was evaluated through the transepithelial electrical resistance (TEER) using a Millicell ERS resistance system (Millipore, Bedford, MA, USA) at 37 °C. Each TEER value was corrected for background resistance determined on an extracellular matrix-coated cell culture insert without cells.
# Caco-2 transport study was performed as previously described. […] A to B assay was performed to determine the extent of OCT absorption, while B to A assay was performed to measure OCT secretion. As regard A to B assay, the apical (upper) chamber was filled with 1.6 mL test drug solution in HBSS, while the receiver basolateral (lower) compartment was filled with 0.6 mL HBSS alone. Conversely, in B to A assay the upper and lower chambers were filled with 0.6 mL HBSS and 1.6 mL test drug, respectively. […] The TEER value was determined at different incubation times to verify the integrity of the monolayer after buffer change. […] The permeability direction rate (PDR) was calculated by the ratio of Papp in the B to A direction versus that in the A to B direction, as follows: PDR=Papp(BtoA)/Papp(AtoB)
# as §1, §2
# [4] = tested on: Caco-2 cells; assay type: cell-based, human; conditions: OCT concentrations of 1, 10, and 50 µM; data not shown
# Procedure: as §3
# [5] = tested on: CYP3A; assay: OCT metabolism by CYP3A in rat intestinal microsomes; assay type: in vitro ADME
# Procedure: Microsomes from the small intestine of healthy rats and PH rats were obtained as previously described, and their protein concentration (0.53 ± 0.05 mg/mL and 0.52 ± 0.06 mg/mL total protein, respectively) was measured using the BCA method (Beijing Solarbio Science & Technology Co., Ltd). […] CYP3A activity was measured using a fluorescent quantitative detection kit (Genmed Scientifics Inc., U.S.A.) with the NADPH regenerating system after pre-incubation at 37 °C for 0, 2, 10, 20 or 30 min. […] The organic phase was evaporated to dryness and the OCT content in the residue was measured by LC–MS/MS.
# Each sample was tested 3 times.
# as §2
# [6] = molecular target: T1, recombinant human CYP3A4 (Homo sapiens, UniProt P08684); assay: OCT metabolism by recombinant human cytochrome P450 3A4; assay type: in vitro ADME; conditions: 10 min incubation, CYP3A4 2.5 mg/mL, NADPH; many different metabolites by LC–MS/MS
# T1 construct: purchased BD Gentest (Supersomes)
# Procedure: All incubations were performed at 37 °C in a water bath. Recombinant human cDNA-expressing P450 isozyme 3A4 (BD Gentest Supersomes) was carefully thawed on ice prior to each experiment. […] […] Control samples without NADPH and samples without OCT were also included. […] Each sample was tested 4 times.
# as §2
# [7] = molecular target: T1, recombinant human CYP3A4; assay: CYP3A4 activity with and without OCT incubation (fluorescent quantitative detection kit); assay type: biochemical; conditions: OCT 400 mM
# Procedure: All incubations were performed at 37 °C in a water bath. Recombinant human cDNA-expressing P450 isozyme 3A4 (BD Gentest Supersomes) was carefully thawed on ice prior to each experiment. […] After a 5-min pre-incubation at 37 °C, the reaction was started by the addition of NADPH and ended 30 min later by the addition of 500 µL methanol. Control samples without NADPH and samples without OCT were also included. […] Each sample was tested 4 times.
# [8] = 10 µM OCT alone, PH rats versus healthy rats
# [9] = 10 µM OCT plus 1 mM probenecid (Group C1)
# [10] = 10 µM OCT plus 1 mM verapamil hydrochloride (Group B1)
# [11] = 10 µM OCT plus 1 mM verapamil hydrochloride plus 1 mM probenecid (Group D1)
# [12] = 10 µM OCT plus 1 mM probenecid (Group C)
# [13] = 10 µM OCT plus 1 mM verapamil hydrochloride (Group B)
# [14] = 10 µM OCT plus 1 mM verapamil hydrochloride plus 1 mM probenecid (Group D)
# [15] = Caco-2, OCT 1 μM, Control (no inhibitor)
# [16] = Caco-2, OCT 1 μM, MRP2 and P-gp inhibition
# [17] = Caco-2, OCT 1 μM, MRP2 inhibition (probenecid 1 mM)
# [18] = Caco-2, OCT 1 μM, P-gp inhibition (rhodamine 123 1 mM)
# [19] = Caco-2, OCT 10 μM, Control (no inhibitor)
# [20] = Caco-2, OCT 10 μM, MRP2 and P-gp inhibition
# [21] = Caco-2, OCT 10 μM, MRP2 inhibition (probenecid 1 mM)
# [22] = Caco-2, OCT 10 μM, P-gp inhibition (rhodamine 123 1 mM)
# [23] = Caco-2, OCT 50 μM, Control (no inhibitor)
# [24] = Caco-2, OCT 50 μM, MRP2 and P-gp inhibition
# [25] = Caco-2, OCT 50 μM, MRP2 inhibition (probenecid 1 mM)
# [26] = Caco-2, OCT 50 μM, P-gp inhibition (rhodamine 123 1 mM)
# T1 sequence (P08684 whole entry): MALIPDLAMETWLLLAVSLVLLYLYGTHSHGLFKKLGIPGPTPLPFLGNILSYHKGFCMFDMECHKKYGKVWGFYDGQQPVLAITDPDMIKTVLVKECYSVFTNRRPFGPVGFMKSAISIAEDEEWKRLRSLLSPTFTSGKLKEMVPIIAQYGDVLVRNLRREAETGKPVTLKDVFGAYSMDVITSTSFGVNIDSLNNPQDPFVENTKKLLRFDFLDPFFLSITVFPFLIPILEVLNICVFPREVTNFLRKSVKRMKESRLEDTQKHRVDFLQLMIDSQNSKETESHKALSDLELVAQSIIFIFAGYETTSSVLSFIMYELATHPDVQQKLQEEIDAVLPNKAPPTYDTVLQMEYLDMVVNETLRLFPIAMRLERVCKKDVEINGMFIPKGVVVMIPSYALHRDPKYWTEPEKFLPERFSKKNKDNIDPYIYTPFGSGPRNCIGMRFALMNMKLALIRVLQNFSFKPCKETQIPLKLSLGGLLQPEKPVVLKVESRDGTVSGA
compound,measurement,setting,value
"C[C@@H](O)[C@@H]1NC(=O)[C@H](CCCCN)NC(=O)[C@@H](Cc2c[nH]c3ccccc23)NC(=O)[C@H](Cc2ccccc2)NC(=O)[C@@H](NC(=O)[C@H](N)Cc2ccccc2)CSSC[C@@H](C(=O)N[C@H](CO)[C@@H](C)O)NC1=O [OCT, octreotide]",AUC of group A1 as % of group A,[1]; [8],96%
same,"AUC, % of the correspondent control group (Group A1)",[1]; [9],236.28%
same,"AUC, % of the correspondent control group (Group A1)",[1]; [10],384.61%
same,"AUC, % of the correspondent control group (Group A1)",[1]; [11],461.78%
same,"AUC, % of the correspondent control (Group A; OCT only)",[1]; [12],418.95%
same,"AUC, % of the correspondent control (Group A; OCT only)",[1]; [13],521.08%
same,"AUC, % of the correspondent control (Group A; OCT only)",[1]; [14],618.40%
same,AUC of group A1 as % of group A,[2]; [8],21.54%
same,"AUC, % of the correspondent control group (Group A1)",[2]; [9],128.23%
same,"AUC, % of the correspondent control group (Group A1)",[2]; [10],151.82%
same,"AUC, % of the correspondent control group (Group A1)",[2]; [11],165.33%
same,"AUC, % of the correspondent control group (Group A)",[2]; [12],151.39%
same,"AUC, % of the correspondent control group (Group A)",[2]; [13],176.22%
same,"AUC, % of the correspondent control group (Group A)",[2]; [14],220.63%
same,Papp A→B,[3]; [15],0.005 ± 0.001 ×10⁻⁶ cm/s
same,Papp B→A,[3]; [15],0.021 ± 0.003 ×10⁻⁶ cm/s
same,Papp A→B,[3]; [16],0.022 ± 0.002 ×10⁻⁶ cm/s
same,Papp B→A,[3]; [16],0.006 ± 0.001 ×10⁻⁶ cm/s
same,Papp A→B,[3]; [17],0.007 ± 0.001 ×10⁻⁶ cm/s
same,Papp B→A,[3]; [17],0.006 ± 0.001 ×10⁻⁶ cm/s
same,Papp A→B,[3]; [18],0.01 ± 0.001 ×10⁻⁶ cm/s
same,Papp B→A,[3]; [18],0.012 ± 0.002 ×10⁻⁶ cm/s
same,Papp A→B,[3]; [19],0.127 ± 0.015 ×10⁻⁶ cm/s
same,Papp B→A,[3]; [19],0.565 ± 0.073 ×10⁻⁶ cm/s
same,Papp A→B,[3]; [20],0.368 ± 0.055 ×10⁻⁶ cm/s
same,Papp B→A,[3]; [20],0.193 ± 0.021 ×10⁻⁶ cm/s
same,Papp A→B,[3]; [21],0.149 ± 0.016 ×10⁻⁶ cm/s
same,Papp B→A,[3]; [21],0.31 ± 0.025 ×10⁻⁶ cm/s
same,Papp A→B,[3]; [22],0.168 ± 0.018 ×10⁻⁶ cm/s
same,Papp B→A,[3]; [22],0.297 ± 0.024 ×10⁻⁶ cm/s
same,Papp A→B,[3]; [23],0.23 ± 0.021 ×10⁻⁶ cm/s
same,Papp B→A,[3]; [23],1.33 ± 0.16 ×10⁻⁶ cm/s
same,Papp A→B,[3]; [24],1.73 ± 0.138 ×10⁻⁶ cm/s
same,Papp B→A,[3]; [24],0.981 ± 0.082 ×10⁻⁶ cm/s
same,Papp A→B,[3]; [25],0.353 ± 0.032 ×10⁻⁶ cm/s
same,Papp B→A,[3]; [25],1.13 ± 0.097 ×10⁻⁶ cm/s
same,Papp A→B,[3]; [26],1.19 ± 0.072 ×10⁻⁶ cm/s
same,Papp B→A,[3]; [26],1.04 ± 0.084 ×10⁻⁶ cm/s
same,Caco-2 cell death (LDH-cytotoxicity assay),[4],No sign of Caco-2 cell death
same,"OCT level, PH + OCT group versus N + OCT group","[5]; intestinal microsomes of PH versus healthy rats, OCT 1000 ng/mL, 37 °C, p < 0.05",significantly lower
same,OCT level in the presence of the CYP3A inhibitor ketoconazole,"[5]; intestinal microsomes of healthy and PH rats, OCT 1000 ng/mL, ketoconazole 10 µM, p < 0.01",significantly and equally increased
same,Metabolism of OCT by CYP3A,"[5]; rat intestinal microsomes, NADPH-generating system",metabolized by CYP3A
same,Metabolism of OCT by recombinant human CYP3A4,[6],CYP3A4 metabolized OCT
same,Change in activity of recombinant human CYP3A4 after pre-incubation with OCT,[7],No changes
